Key:
[1] = molecular target: Sodium-dependent dopamine transporter (Rattus norvegicus, UniProt P23977); experiment: Evaluated for the Competitive inhibition of uptake of dopamine transporter
Mus musculus [2] = species: Mus musculus; experiment: Long term depletion of Dopamine(DA) in Whole mouse Brain at a high dose (300 nmol); assay type: functional
Mus musculus [3] = species: Mus musculus; experiment: Long term depletion of Dopamine(DA) in Whole mouse Brain at a low dose (60 nmol); assay type: functional
Mus musculus [4] = species: Mus musculus; experiment: Long term depletion of Norepinephrine (NE) in Whole mouse Brain at a high dose (300 nmol); assay type: functional
Mus musculus [5] = species: Mus musculus; experiment: Long term depletion of Norepinephrine (NE) in Whole mouse Brain at a low dose (60 nmol); assay type: functional
Mus musculus [6] = species: Mus musculus; experiment: Long term depletion of Serotonin(5-HT) in Whole mouse Brain at a high dose (300 nmol); assay type: functional
Mus musculus [7] = species: Mus musculus; experiment: Long term depletion of Serotonin(5-HT) in Whole mouse Brain at a low dose (60 nmol); assay type: functional
[8] = molecular target: T1, Norepinephrine transporter (Rattus norvegicus, UniProt Q9WTR4); experiment: Evaluated for the Competitive inhibition of uptake of norepinephrine
Rattus norvegicus [9] = species: Rattus norvegicus; experiment: Evaluated for the stimulation of synaptosomal release of Dopamine (release constant); assay type: functional
Rattus norvegicus [10] = species: Rattus norvegicus; experiment: Evaluated for the stimulation of synaptosomal release of norepinephrine (release constant); assay type: functional
[11] = molecular target: T1, Norepinephrine transporter; experiment: Evaluated for the Non competitive inhibition of uptake of norepinephrine
Mus musculus [12] = species: Mus musculus; experiment: Long term depletion of Dopamine(DA) in Whole mouse Brain region of cerebellum at a high dose (300 nmol); assay type: functional
Mus musculus [13] = species: Mus musculus; experiment: Long term depletion of Dopamine(DA) in Whole mouse Brain region of cortex at a high dose (300 nmol); assay type: functional
Mus musculus [14] = species: Mus musculus; experiment: Long term depletion of Dopamine(DA) in Whole mouse Brain region of hippocampus at a high dose (300 nmol); assay type: functional
Mus musculus [15] = species: Mus musculus; experiment: Long term depletion of Dopamine(DA) in Whole mouse Brain region of hypothalamus at a high dose (300 nmol); assay type: functional
Mus musculus [16] = species: Mus musculus; experiment: Long term depletion of Dopamine(DA) in Whole mouse Brain region of medulla-pons at a high dose (300 nmol); assay type: functional
Mus musculus [17] = species: Mus musculus; experiment: Long term depletion of Serotonin(5-HT) in Whole mouse Brain region of medulla-pons at a high dose (300 nmol); assay type: functional
Mus musculus [18] = species: Mus musculus; experiment: Long term depletion of Serotonin(5-HT) in Whole mouse Brain region of striatum at a high dose (300 nmol); assay type: functional
Mus musculus [19] = species: Mus musculus; experiment: Long term depletion of Serotonin(5-HT) in Whole mouse Brain region of thalamus at a high dose (300 nmol); assay type: functional
Mus musculus [20] = species: Mus musculus; experiment: Long term depletion of Serotonin(5-HT) in Whole mouse Brain, region of midbrain at a high dose (300 nmol); assay type: functional
Mus musculus [21] = species: Mus musculus; experiment: Long term depletion of Dopamine(DA) in Whole mouse Brain region of striatum at a high dose (300 nmol); assay type: functional
Mus musculus [22] = species: Mus musculus; experiment: Long term depletion of Dopamine(DA) in Whole mouse Brain region of thalamus at a high dose (300 nmol); assay type: functional
Mus musculus [23] = species: Mus musculus; experiment: Long term depletion of Dopamine(DA) in Whole mouse Brain, region of midbrain at a high dose (300 nmol); assay type: functional
Mus musculus [24] = species: Mus musculus; experiment: Noradrenergic effect was determined by depletion effect of Dopamine(DA) in mouse brain regions expressed as d50; assay type: functional
Mus musculus [25] = species: Mus musculus; experiment: Noradrenergic effect was determined by depletion effect of Nerepinephrine (NE) in mouse brain regions expressed as d50; assay type: functional
Mus musculus [26] = species: Mus musculus; experiment: Noradrenergic effect was determined by depletion effect of Serotonin(5-HT) in mouse brain regions expressed as d50; assay type: functional
Mus musculus [27] = species: Mus musculus; experiment: Noradrenergic effect was determined by depletion effect of Dopamine(DA) in mouse brain regions expressed as log d50; assay type: functional, organism-based
Mus musculus [28] = species: Mus musculus; experiment: Noradrenergic effect was determined by depletion effect of Nerepinephrine (NE) in mouse brain regions expressed as log d50; assay type: functional, organism-based
Mus musculus [29] = species: Mus musculus; experiment: Noradrenergic effect was determined by depletion effect of Serotonin(5-HT) in mouse brain regions expressed as log d50; assay type: functional, organism-based
Mus musculus [30] = species: Mus musculus; experiment: Long term depletion of Serotonin(5-HT) in Whole mouse Brain region of cerebellum at a high dose (300 nmol); assay type: functional
Mus musculus [31] = species: Mus musculus; experiment: Long term depletion of Serotonin(5-HT) in Whole mouse Brain region of cortex at a high dose (300 nmol); assay type: functional
Mus musculus [32] = species: Mus musculus; experiment: Long term depletion of Serotonin(5-HT) in Whole mouse Brain region of hippocampus at a high dose (300 nmol); assay type: functional
Mus musculus [33] = species: Mus musculus; experiment: Long term depletion of Serotonin(5-HT) in Whole mouse Brain region of hypothalamus at a high dose (300 nmol); assay type: functional
Mus musculus [34] = species: Mus musculus; experiment: Long term depletion of Norepinephrine (NE) in Whole mouse Brain region of cerebellum at a high dose (300 nmol); assay type: functional
Mus musculus [35] = species: Mus musculus; experiment: Long term depletion of Norepinephrine (NE) in Whole mouse Brain, region of midbrain at a high dose (300 nmol); assay type: functional
Mus musculus [36] = species: Mus musculus; experiment: Long term depletion of Norepinephrine (NE) in Whole mouse Brain region of hypothalamus at a high dose (300 nmol); assay type: functional
Mus musculus [37] = species: Mus musculus; experiment: Long term depletion of Norepinephrine (NE) in Whole mouse Brain region of striatum at a high dose (300 nmol); assay type: functional
Mus musculus [38] = species: Mus musculus; experiment: Long term depletion of Norepinephrine (NE) in Whole mouse Brain region of thalamus at a high dose (300 nmol); assay type: functional
Mus musculus [39] = species: Mus musculus; experiment: Long term depletion of Norepinephrine (NE) in Whole mouse Brain region of cortex at a high dose (300 nmol); assay type: functional
Mus musculus [40] = species: Mus musculus; experiment: Long term depletion of Norepinephrine (NE) in Whole mouse Brain region of hippocampus at a high dose (300 nmol); assay type: functional
Mus musculus [41] = species: Mus musculus; experiment: Long term depletion of Norepinephrine (NE) in Whole mouse Brain region of medulla-pons at a high dose (300 nmol); assay type: functional

T1 sequence (Q9WTR4 whole entry): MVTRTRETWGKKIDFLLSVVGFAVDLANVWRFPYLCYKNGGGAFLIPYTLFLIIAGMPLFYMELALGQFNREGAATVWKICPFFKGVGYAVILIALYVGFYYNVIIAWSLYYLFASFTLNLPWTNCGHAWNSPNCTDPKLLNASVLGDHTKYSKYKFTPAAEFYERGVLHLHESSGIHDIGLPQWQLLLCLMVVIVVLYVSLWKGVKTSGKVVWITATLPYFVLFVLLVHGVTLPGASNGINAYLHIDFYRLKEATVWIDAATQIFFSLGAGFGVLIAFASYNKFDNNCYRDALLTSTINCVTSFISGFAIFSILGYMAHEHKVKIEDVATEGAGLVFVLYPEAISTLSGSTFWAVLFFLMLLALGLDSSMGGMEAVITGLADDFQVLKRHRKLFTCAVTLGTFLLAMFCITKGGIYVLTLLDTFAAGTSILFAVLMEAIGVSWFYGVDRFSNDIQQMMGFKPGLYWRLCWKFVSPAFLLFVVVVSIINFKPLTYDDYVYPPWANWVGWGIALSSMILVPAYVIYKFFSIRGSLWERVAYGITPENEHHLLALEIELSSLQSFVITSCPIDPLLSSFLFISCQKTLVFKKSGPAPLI
Sequence of Sodium-dependent dopamine transporter (P23977 whole entry): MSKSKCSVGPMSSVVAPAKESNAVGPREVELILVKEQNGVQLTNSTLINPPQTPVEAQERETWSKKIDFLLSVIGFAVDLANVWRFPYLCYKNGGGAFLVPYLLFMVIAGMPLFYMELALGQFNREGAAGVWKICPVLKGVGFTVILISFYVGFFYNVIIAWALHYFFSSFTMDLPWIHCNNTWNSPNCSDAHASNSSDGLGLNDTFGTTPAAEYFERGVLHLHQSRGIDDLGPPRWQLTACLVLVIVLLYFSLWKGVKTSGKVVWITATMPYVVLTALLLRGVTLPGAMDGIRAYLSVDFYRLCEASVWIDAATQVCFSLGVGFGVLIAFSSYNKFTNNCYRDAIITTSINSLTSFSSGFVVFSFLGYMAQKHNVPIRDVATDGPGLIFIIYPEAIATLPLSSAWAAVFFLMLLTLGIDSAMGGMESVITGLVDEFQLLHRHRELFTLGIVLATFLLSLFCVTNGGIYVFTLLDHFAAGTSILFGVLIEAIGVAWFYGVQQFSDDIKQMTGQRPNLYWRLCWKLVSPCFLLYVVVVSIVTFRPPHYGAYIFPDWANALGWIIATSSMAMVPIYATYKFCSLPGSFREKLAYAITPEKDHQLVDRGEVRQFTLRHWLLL

SMILES: NCCc1cc(O)c(O)cc1N
- Ki [1]: 17 nM
- percent of control (Mus musculus [2]): 79%
- Control (Mus musculus [3]): 90%
- Control (Mus musculus [4]): 37%
- Control (Mus musculus [5]): 40%
- Control (Mus musculus [6]): 74%
- Control (Mus musculus [7]): 78%
- Ki [8]: 11 nM
- EC50 (Rattus norvegicus [9]): 3000 nM
- EC50 (Rattus norvegicus [10]): 23000 nM

SMILES: CC(N)Cc1cc(O)c(N)cc1O (stereo not given)
- Ki [1]: 3 nM
- percent of control (Mus musculus [2]): 88%
- Control (Mus musculus [3]): 100%
- Control (Mus musculus [4]): 40%
- Control (Mus musculus [5]): 33%
- Control (Mus musculus [6]): 83%
- Control (Mus musculus [7]): 79%
- Ki [11]: 1 nM
- EC50 (Rattus norvegicus [9]): 8000 nM
- EC50 (Rattus norvegicus [10]): 51000 nM

SMILES: CC(N)Cc1cc(N)c(O)cc1O (stereo not given)
- Ki [1]: 112 nM
- percent of control (Mus musculus [2]): 74%
- Control (Mus musculus [3]): 100%
- Control (Mus musculus [12]): 63%
- Control (Mus musculus [13]): 57%
- Control (Mus musculus [14]): 42%
- Control (Mus musculus [15]): 120%
- Control (Mus musculus [16]): 110%
- Control (Mus musculus [17]): 101%
- Control (Mus musculus [18]): 104%
- Control (Mus musculus [19]): 93%
- Control (Mus musculus [20]): 75%
- Control (Mus musculus [21]): 71%
- Control (Mus musculus [22]): 154%
- Control (Mus musculus [23]): 116%
- Control (Mus musculus [4]): 22%
- d50 (Mus musculus [24]): 918 nmol
- d50 (Mus musculus [25]): 21.5 nmol
- d50 (Mus musculus [26]): 3220 nmol
- Log d50 (Mus musculus [27]): 0.00296 µM
- Log d50 (Mus musculus [28]): 0.00133 µM
- Log d50 (Mus musculus [29]): 0.00351 µM
- Control (Mus musculus [30]): 77%
- Control (Mus musculus [31]): 78%
- Control (Mus musculus [32]): 63%
- Control (Mus musculus [33]): 75%
- Control (Mus musculus [5]): 26%
- Control (Mus musculus [34]): 3.4%
- Control (Mus musculus [35]): 74%
- Control (Mus musculus [6]): 83%
- Control (Mus musculus [7]): 103%
- Control (Mus musculus [36]): 1.3%
- Control (Mus musculus [37]): 7%
- Control (Mus musculus [38]): 14%
- Control (Mus musculus [39]): 8%
- Control (Mus musculus [40]): 6.4%
- Ki [8]: 46 nM
- EC50 (Rattus norvegicus [9]): 380000 nM
- EC50 (Rattus norvegicus [10]): 672000 nM
- Control (Mus musculus [41]): 59%

SMILES: NCCc1cc(N)c(O)cc1O
- Ki [1]: 47 nM
- percent of control (Mus musculus [2]): 84%
- Control (Mus musculus [3]): 96%
- Control (Mus musculus [4]): 36%
- Control (Mus musculus [5]): 40%
- Control (Mus musculus [6]): 96%
- Control (Mus musculus [7]): 91%
- Ki [8]: 13 nM
- EC50 (Rattus norvegicus [9]): 105000 nM
- EC50 (Rattus norvegicus [10]): 212000 nM
